One experiment concerns RasGRF1, p-ERK, p-CREB. As to the kind of experiment: Ras signaling immunofluorescence, primary hippocampal neurons. The class given is cell-based, Sprague-Dawley rats. The note with it: 5 μM. The method, then: Primary neuron culture and immunostaining. Primary hippocampal neurons from E19 Sprague-Dawley rats were cultured at 150 cells/mm^2 as previously described (Pak et al., 2001). Neurons were transfected using Lipofectamine™ 2000 (Invitrogen, Carlsbad, Calif., USA) or calcium phosphate precipitation with GFP+PLL, GFP+APP shRNA, or GFP+APP and treated with BTA-EG4. The following antibodies were used: mouse anti-GFP (Novus Biologicals, 9F9.F9), rabbit anti-GFP (Invitrogen, A11122), rabbit anti-GluR1 (Calbiochem, PC246), mouse anti-GluR2 (BD Pharmagen, 556341), mouse anti-postsynaptic density (PSD)-95 (NeuroMabs, Davis, Calif., USA), mouse anti-Synaptophysin (Sigma Aldrich, s5768), rabbit APP N-terminal (Sigma-Aldrich, A8967), anti-Ras (BD Biosciences, 610001), anti-RasGRF1 (Santa Cruz, C-20; BD Biosciences, 610149), anti-ERK1/2 (Cell Signaling, 4695), anti-p-ERK1/2 (Invitrogen, 36880), anti-CREB (Cell Signaling, D76D11), anti-p-CREB (Millipore, 06-519), and mouse anti-c-Myc (Novus Biologicals, 9E10). Cultured hippocampal neuron images were acquired by LSM 510 laser scanning confocal microscope (Zeiss). Confocal zseries image stacks encompassing entire dendrite segments were analyzed using MetaMorph software (Universal Imaging Corporation, Downington, Pa., USA).
We next investigated the molecular mechanism by which BTA-EG4 may alter dendritic spine formation. Ras, a small GTPase, is involved in dendritic spine formation and synaptic delivery of AMPA receptors (Zhu et al., 2002; Lee et al., 2011). Moreover, abnormal Ras signaling is associated with neurodegenerative disease, causing cognitive impairments and learning deficits (Stornetta and Zhu, 2011). Thus, we initially investigated the effect of BTA-EG4 on Ras signaling by treating primary hippocampal neurons with BTA-EG4 (5 μM) or control for 24 hrs. […] Further, levels of active Ras were elevated following BTA-EG4 treatment (5 μM) in primary cortical neurons (FIG. 7C) and following BTA-EG4 treatment (30 mg/kg) in wild-type mice (FIG. 7D). We also examined whether BTA-EG4 can alter the activity of downstream Ras signaling proteins, including p-ERK and p-CREB.
Since we observed that BTA-EG4 and APP could possibly regulate dendritic spine density through Ras-dependent mechanisms, we then examined whether BTA-EG4 requires APP to modulate Ras signaling. To test this hypothesis, primary hippocampal neurons were transfected with GFP and APP shRNA or GFP and APP, treated with control or BTA-EG4 (5 μM), then immunostained against RasGRF1 (FIGS. 9A, 9B).

The nature of experiment [1]: Fear conditioning, wild-type mice. Conditions: 30 mg/kg daily for 2 weeks. The format is in vivo. The method, then:
Fear conditioning. Before initiating fear-conditioning tests, wild-type mice were injected daily with BTA-EG4 or vehicle for 2 weeks (n=8/group). Mice were subsequently trained by exposure to a conditioning box (context) for 3 min before administering a tone (18 s) and footshock (2 s), which were repeated twice at 1 min intervals. We performed the contextual test 24 h after training by re-exposing the mice to the conditioning context. A measurement of freezing behavior was recorded every minute for 3 min inside of the conditioning box. The cued test was conducted 3 h following the contextual test. Following a 3 min reexposure to the conditioning box, a tone (18 s) was administered and freezing behavior was measured for 1 min.

Consider BTA-EG4, for which, in the experiment with RasGRF1, p-ERK, p-CREB (24 h), the “levels of RasGRF1” value is reported as “increased”, the “phosphorylation of CREB” value is recorded as “increased”, the “phosphorylation of ERK” value is recorded as “increased” and the “total ERK or CREB levels” value is recorded as “without altering”. Moreover, in the experiment on RasGRF1, p-ERK, p-CREB (knockdown of APP), the RasGRF1 entry was “did not increase”, the p-CREB result was “ineffective” and the p-ERK result is given as “ineffective”. In addition, in the experiment on RasGRF1, p-ERK, p-CREB (overexpression of APP), the RasGRF1 result is recorded as “significantly increased”, the p-CREB result is “significantly increased” and the p-ERK entry was “significantly increased”. In experiment [1], the “freezing, contextual test” value was “significantly increased” and the “freezing, cued test” value is reported as “significantly increased”.

For the origin of these results see patent US20160000762A1, “IMPROVING COGNITIVE FUNCTION” (THE REGENTS OF THE UNIVERSITY OF CALIFORNIA, priority 2013, published 2016).
